According to US20240390340A1 (INCYTE CORPORATION, priority 2023, published 2024):

What was measured:
[1] = tested on: Caco-2 cells; assay: Caco2 assay (Papp A-B); type: in vitro ADME; details: test compound 50 μM, 120 min, 37° C.
In short: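 Caco-2 monolayers grown 22–25 days on Transwells (TEER 300 Ω·cm^2) were dosed apically with 50 μM compound in HBSS; basolateral receiver held HBSS with 4% BSA. Incubation 120 min at 37° C, 5% CO2; donor and receiver samples quantified by LCMS and Papp A-B calculated from receiver-side cumulative flux slope.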

[2] = biological target: KRAS G12V (Homo sapiens, UniProt P01116, G12V); assay: GDP-GTP exchange assay (bodipy-GDP/GppNHp, SOS1), KRAS G12V; type: biochemical; details: Table H, column G12V; for compounds isolated as several atropisomers/diastereoisomers the value for the most potent isomer is quoted; read-out: KRAS G12V exchange assay IC50
[3] = biological target: KRAS G12D (Homo sapiens, UniProt P01116, G12D); assay: GDP-GTP exchange assay (bodipy-GDP/GppNHp, SOS1), KRAS G12D; type: biochemical; details: Table H, column G12D; for compounds isolated as several atropisomers/diastereoisomers the value for the most potent isomer is quoted; read-out: KRAS G12D exchange assay IC50
Chain of KRAS G12D (P01116 1-188 isoform P01116-2 G12D): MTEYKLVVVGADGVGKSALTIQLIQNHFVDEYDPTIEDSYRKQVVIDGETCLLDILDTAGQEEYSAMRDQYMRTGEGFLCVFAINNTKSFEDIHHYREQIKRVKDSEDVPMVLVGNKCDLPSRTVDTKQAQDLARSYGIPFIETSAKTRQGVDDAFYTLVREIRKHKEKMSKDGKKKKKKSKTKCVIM

Chain of KRAS G12V (P01116 1-188 isoform P01116-2 G12V): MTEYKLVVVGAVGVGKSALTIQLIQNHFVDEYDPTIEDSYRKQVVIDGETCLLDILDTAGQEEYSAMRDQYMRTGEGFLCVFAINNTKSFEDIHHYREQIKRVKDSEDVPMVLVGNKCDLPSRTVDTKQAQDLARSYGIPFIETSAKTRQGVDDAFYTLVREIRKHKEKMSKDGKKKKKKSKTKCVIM

SMILES | Caco-2 [1] | IC50 [2] [nM] | IC50 [3] [nM]
Cc1nc2c(F)c(-c3cccc(Cl)c3Cl)c(CCC#N)cc2c2c1cc([C@H]1C[C@H](Oc3cccc(C#N)c3)CN1C(=O)C1CC1)n2[C@H]1[C@H]2CN[C@@H]1C2 [Example 45, 3-(((3S,5R)-5-(1-((1R,4R,5S)-2-Azabicyclo[2.1.1]hexan-5-yl)-8-(2-cyanoethyl)-7-(2,3-dichlorophenyl)-6-fluoro-4-methyl-1H-pyrrolo[3,2-c]quinolin-2-yl)-1-(cyclopropanecarbonyl)pyrrolidin-3-yl)oxy)benzonitrile] | + (a Caco-2 value of ≤0.5) | ≤ 100 | ≤ 100
Cc1nc2c(F)c(-c3cccc(Cl)c3Cl)c(CCC#N)cc2c2c1cc([C@H]1C[C@H](Oc3cnn(C)c3C#N)CN1C(=O)C1CC1)n2[C@H]1[C@H]2CN[C@@H]1C2 [Example 46, 4-(((3S,5R)-5-(1-((1R,4R,5S)-2-Azabicyclo[2.1.1]hexan-5-yl)-8-(2-cyanoethyl)-7-(2,3-dichlorophenyl)-6-fluoro-4-methyl-1H-pyrrolo[3,2-c]quinolin-2-yl)-1-(cyclopropanecarbonyl)pyrrolidin-3-yl)oxy)-1-methyl-1H-pyrazole-5-carbonitrile] | + (a Caco-2 value of ≤0.5) | ≤ 100 | ≤ 100
Cc1nc2c(F)c(-c3cccc(Cl)c3Cl)c(CCC#N)cc2c2c1cc([C@H]1C[C@H](Oc3cnn(C)c3C(F)F)CN1C(=O)C1CC1)n2[C@H]1[C@H]2CN[C@@H]1C2 [Example 47, 3-(1-((1R,4R,5S)-2-Azabicyclo[2.1.1]hexan-5-yl)-2-((2R,4S)-1-(cyclopropanecarbonyl)-4-((5-(difluoromethyl)-1-methyl-1H-pyrazol-4-yl)oxy)pyrrolidin-2-yl)-7-(2,3-dichlorophenyl)-6-fluoro-4-methyl-1H-pyrrolo[3,2-c]quinolin-8-yl)propanenitrile] | + (a Caco-2 value of ≤0.5) | ≤ 100 | ≤ 100
Cc1nc2c(F)c(-c3cccc(Cl)c3Cl)c(CCC#N)cc2c2c1cc([C@H]1C[C@H](Oc3cnn(C(F)F)c3)CN1C(=O)C1CC1)n2[C@H]1[C@H]2CN[C@@H]1C2 [Example 48, 3-(1-((1R,4R,5S)-2-Azabicyclo[2.1.1]hexan-5-yl)-2-((2R,4S)-1-(cyclopropanecarbonyl)-4-((1-(difluoromethyl)-1H-pyrazol-4-yl)oxy)pyrrolidin-2-yl)-7-(2,3-dichlorophenyl)-6-fluoro-4-methyl-1H-pyrrolo[3,2-c]quinolin-8-yl)propanenitrile] | +++ (a Caco-2 value of >1) | ≤ 100 | ≤ 100
COc1ncccc1O[C@H]1C[C@H](c2cc3c(C)nc4c(F)c(-c5cccc(Cl)c5Cl)c(CCC#N)cc4c3n2[C@H]2[C@H]3CN[C@@H]2C3)N(C(=O)C2CC2)[C@@H]1C [Example 49, 3-(1-((1R,4R,5S)-2-Azabicyclo[2.1.1]hexan-5-yl)-2-((2R,4S,5R)-1-(cyclopropanecarbonyl)-4-((2-methoxypyridin-3-yl)oxy)-5-methylpyrrolidin-2-yl)-7-(2,3-dichlorophenyl)-6-fluoro-4-methyl-1H-pyrrolo[3,2-c]quinolin-8-yl)propanenitrile] | +++ (a Caco-2 value of >1) | ≤ 100 | ≤ 100
COc1cc(O[C@H]2C[C@H](c3cc4c([C@@H](C)O)nc5c(F)c(-c6cccc(Cl)c6Cl)c(CCC#N)cc5c4n3[C@H]3[C@H]4CN[C@@H]3C4)N(C(=O)C3CC3)[C@@H]2C)c(F)cn1 [Example 51, 3-(1-((1R,4R,5S)-2-Azabicyclo[2.1.1]hexan-5-yl)-2-((2R,4S,5R)-1-(cyclopropanecarbonyl)-4-((5-fluoro-2-methoxypyridin-4-yl)oxy)-5-methylpyrrolidin-2-yl)-7-(2,3-dichlorophenyl)-6-fluoro-4-((R)-1-hydroxyethyl)-1H-pyrrolo[3,2-c]quinolin-8-yl)propanenitrile] | + (a Caco-2 value of ≤0.5) | ≤ 100 | ≤ 100
COc1cc(O[C@H]2C[C@H](c3cc4c([C@@H](C)O)nc5c(F)c(-c6cccc(Cl)c6Cl)c(CCC#N)cc5c4n3[C@H]3[C@H]4CN[C@@H]3C4)N(C(=O)C3(C)CC3)[C@@H]2C)c(F)cn1 [Example 52, 3-(1-((1R,4R,5S)-2-Azabicyclo[2.1.1]hexan-5-yl)-7-(2,3-dichlorophenyl)-6-fluoro-2-((2R,4S,5R)-4-((5-fluoro-2-methoxypyridin-4-yl)oxy)-5-methyl-1-(1-methylcyclopropane-1-carbonyl)pyrrolidin-2-yl)-4-((R)-1-hydroxyethyl)-1H-pyrrolo[3,2-c]quinolin-8-yl)propanenitrile] | + (a Caco-2 value of ≤0.5) | ≤ 100 | ≤ 100
COc1nccc(O[C@H]2C[C@H](c3cc4c([C@@H](C)O)nc5c(F)c(-c6cccc(Cl)c6Cl)c(CCC#N)cc5c4n3[C@H]3[C@H]4CN[C@@H]3C4)N(C(=O)C3CC3)C2)c1F [Example 53, 3-(1-((1R,4R,5S)-2-Azabicyclo[2.1.1]hexan-5-yl)-2-((2R,4S)-1-(cyclopropanecarbonyl)-4-((3-fluoro-2-methoxypyridin-4-yl)oxy)pyrrolidin-2-yl)-7-(2,3-dichlorophenyl)-6-fluoro-4-((R)-1-hydroxyethyl)-1H-pyrrolo[3,2-c]quinolin-8-yl)propanenitrile] | ++ (a Caco-2 value of >0.5 but ≤1) | ≤ 100 | ≤ 100
C[C@@H](O)c1nc2c(F)c(-c3cccc(Cl)c3Cl)c(CCC#N)cc2c2c1cc([C@H]1C[C@H](Oc3nccs3)CN1C(=O)C1CC1)n2[C@H]1[C@H]2CN[C@@H]1C2 [Example 54, 3-(1-((1R,4R,5S)-2-Azabicyclo[2.1.1]hexan-5-yl)-2-((2R,4S)-1-(cyclopropanecarbonyl)-4-(thiazol-2-yloxy)pyrrolidin-2-yl)-7-(2,3-dichlorophenyl)-6-fluoro-4-((R)-1-hydroxyethyl)-1H-pyrrolo[3,2-c]quinolin-8-yl)propanenitrile] | + (a Caco-2 value of ≤0.5) | ≤ 100 | ≤ 100
Cc1nc2c(F)c(-c3cccc(Cl)c3Cl)c(CCC#N)cc2c2c1cc([C@H]1C[C@H](Oc3ccnc4ccsc34)CN1C(=O)C1CC1)n2[C@H]1[C@H]2CN[C@@H]1C2 [Example 55, 3-(1-((1R,4R,5S)-2-Azabicyclo[2.1.1]hexan-5-yl)-2-((2R,4S)-1-(cyclopropanecarbonyl)-4-(thieno[3,2-b]pyridin-7-yloxy)pyrrolidin-2-yl)-7-(2,3-dichlorophenyl)-6-fluoro-4-methyl-1H-pyrrolo[3,2-c]quinolin-8-yl)propanenitrile] | + (a Caco-2 value of ≤0.5) | ≤ 100 | ≤ 100
Cc1nc2c(F)c(-c3cccc(Cl)c3Cl)c(CCC#N)cc2c2c1cc([C@H]1C[C@H](Oc3cc(F)ccn3)CN1C(=O)C1CC1)n2[C@H]1[C@H]2CN[C@@H]1C2 [Example 56, 3-(1-((1R,4R,5S)-2-Azabicyclo[2.1.1]hexan-5-yl)-2-((2R,4S)-1-(cyclopropanecarbonyl)-4-((4-fluoropyridin-2-yl)oxy)pyrrolidin-2-yl)-7-(2,3-dichlorophenyl)-6-fluoro-4-methyl-1H-pyrrolo[3,2-c]quinolin-8-yl)propanenitrile] | +++ (a Caco-2 value of >1) | ≤ 100 | ≤ 100
